2 compounds from patent US20220024921A1, “1,3,4-OXADIAZOLONE COMPOUND AND PHARMACEUTICAL” (NIPPON SHINYAKU CO., LTD., priority 2018, published 2022) can be followed below.

Molecules are shown by their SMILES.

Usually IC50 stands for the point on the concentration scale where inhibition reaches its midpoint. A higher IC50 goes with weaker potency.

Assay [1] has as its target PIM1 transgenic cells (Ba/F3) (Homo sapiens, UniProt P11309). Nature of the assay: Proliferation inhibitory effect on PIM1 transgenic cells. The note with it: proliferation inhibition, 72 hours, Cell Counting Kit-8, read-out: PIM1 IC50. The class given is cell-based, mouse. A digest of the protocol:
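Mouse Ba/F3 pro-B cells were retrovirally transduced with human PIM1 so that their proliferation depends on PIM1. Cells were treated with compound at 1–10000 nM final for 72 h, then read by CCK-8 (OD450−OD650). Inhibition was set against DMSO (0%) and no-cell blank (100%), and IC50 was obtained by two-parameter logistic regression.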
(Formazan colour is commonly taken as a measure of viable cells.)

Assay [2] relates to graft-versus-host disease model CB6F1 mice. Description: Lymphocyte proliferation inhibitory effect using graft-versus-host disease model animals (splenomegaly formation). The note with it: Mus musculus, 240 h, oral, twice a day for 10 days, GVHD model CB6F1 mice, read-out: Inhibition rate (%) (splenomegaly formation); for inhibition in vivo at 20 mg/kg: single dose 20 mg/kg. It counts as in vivo.

The target of assay [3] is T1, PIM2 serine/threonine kinase (Homo sapiens, UniProt Q9P1W9).
T1 construct: purchased Carna Bioscience, Inc
T1 sequence (Q9P1W9 whole entry): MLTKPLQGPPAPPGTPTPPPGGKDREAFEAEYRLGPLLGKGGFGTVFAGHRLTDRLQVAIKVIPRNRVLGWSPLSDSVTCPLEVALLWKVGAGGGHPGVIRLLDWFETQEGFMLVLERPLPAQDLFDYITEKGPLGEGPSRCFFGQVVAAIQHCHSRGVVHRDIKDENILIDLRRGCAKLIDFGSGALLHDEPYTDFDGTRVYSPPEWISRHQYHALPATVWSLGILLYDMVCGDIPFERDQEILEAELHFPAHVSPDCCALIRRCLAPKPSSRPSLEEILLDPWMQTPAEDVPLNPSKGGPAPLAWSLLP
Description: PIM2 serine/threonine kinase inhibitory effect. As to conditions: PIM2 serine/threonine kinase activity; ATP 2 μM; 30° C., 30 minutes. The class given is biochemical.

For assay [4], the target named is PIM3 transgenic cells (Ba/F3) (Homo sapiens, UniProt Q86V86). Description: Proliferation inhibitory effect on PIM3 transgenic cells. The class given is cell-based, mouse. As to conditions: proliferation inhibition, 72 hours, Cell Counting Kit-8, read-out: PIM3 IC50. From the text: (§1) Human PIM1, 2, and 3 genes were inserted into the multi-cloning sites of retrovirus expression vectors pMYs-IRES-GFP, respectively, to prepare gene transfer vectors. Then, each gene transfer vector was introduced into packaging cells PLAT-E derived from a human fetal kidney cell line in the logarithmic growth phase, using a transfection reagent (FuGENE6, Promega Corporation). Since the culture supernatant of PLAT-E after gene transfer contained virus particles for gene transfer, the culture supernatant was collected and used as a medium for gene transfer. The medium for gene transfer was added to a plate coated with RetroNectin, and the plate was incubated to attach the virus particles to the plate. Then, a mouse pro-B cell line Ba/F3 in the logarithmic growth phase was seeded on the plate and infected with the virus to prepare PIM1, 2, or 3 transgenic cells that proliferate in a PIM 1, 2, or 3-dependent manner. The expression of PIM1, 2, or 3 protein in each cell was confirmed by Western blotting.
(§2) Each test substance was prepared to 10 mM with dimethylsulfoxide (DMSO), and diluted with DMSO so as to have concentrations of 3000, 1000, 300, 100, 30, 10, 3, and 1 μM. Moreover, each dilution was further diluted 10-fold with distilled water to prepare a test substance solution.
(§3) PIM1, 2, 3-expressing cells were seeded on a 96-well plate, and each test substance solution prepared the next day was added such that final concentrations were 10000, 3000, 1000, 300, 100, 30, 10, 3, and 1 nM. 72 hours after the addition, 10 μL of Cell Counting Kit-8 (DOJINDO LABORATORIES) was added to each well. After incubation for 1 to 4 hours, absorbance OD450 at 450 nm was measured. In addition, absorption OD650 at 650 nm as a reference wavelength was measured.
(§4) OD450-OD650 for each condition was calculated, and then the inhibition rates when OD450-OD650 of negative control (DMSO only) and OD450-OD650 of Blank (without cells) were set to 0% and 100%, respectively, were calculated. Then, non-linear regression analysis was performed for logarithmic dose and inhibition rate using a two-parameter logistic model to estimate IC50 values.
(§5) For the compounds with the following Example numbers, in addition to the above proliferation inhibitory effect on PIM1 transgenic cells, the proliferation inhibitory effect on PIM2 transgenic cells and the proliferation inhibitory effect on PIM3 transgenic cells were calculated as IC50.

The target in assay [5] is PIM2 transgenic cells (Ba/F3) (Homo sapiens, UniProt Q9P1W9). Nature of the assay: Proliferation inhibitory effect on PIM2 transgenic cells. It counts as cell-based, mouse. As to conditions: proliferation inhibition, 72 hours, Cell Counting Kit-8, read-out: PIM2 IC50.
Chain of PIM2 transgenic cells (Ba/F3) (Q9P1W9 whole entry, change not shown): as the sequence (Q9P1W9 whole entry) above
Excerpt: as §1, §2, §3, §4, §5

Chain of PIM1 transgenic cells (Ba/F3) (P11309 whole entry, stated change not applied): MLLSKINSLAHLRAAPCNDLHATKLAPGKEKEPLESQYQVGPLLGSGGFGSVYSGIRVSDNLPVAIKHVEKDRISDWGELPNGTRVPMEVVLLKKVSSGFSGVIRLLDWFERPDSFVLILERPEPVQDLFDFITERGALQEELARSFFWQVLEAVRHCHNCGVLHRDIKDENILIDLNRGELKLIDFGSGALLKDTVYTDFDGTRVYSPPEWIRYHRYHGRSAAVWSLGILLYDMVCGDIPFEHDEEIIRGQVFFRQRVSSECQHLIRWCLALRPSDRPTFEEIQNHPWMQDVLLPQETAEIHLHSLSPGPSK

Take `C[C@H](Nc1cc(-c2n[nH]c(=O)o2)cc(F)c1C(F)(F)F)C1CCNCC1.Cl` [Example 75, 5-[3-fluoro-5-{[(1S)-1-(piperidin-4-yl)ethyl]amino}-4-(trifluoromethyl)phenyl]-1,3,4-oxadiazol-2(3H)-one hydrochloride]: the GI50 stood at 0.024 µM in assay [1], 0.12 µM in assay [4] and 0.62 µM in assay [5]. Also, the inhibition in vivo at 6 mg/kg in assay [2] (single dose 6 mg/kg) was 21.7%. For the same compound, the inhibition in vivo at 20 mg/kg in assay [2] was found to be 27.1%. Moreover, in assay [3], 0.0023 µM corresponded to half-maximal inhibition (IC50).
Turning to `C[C@H](Nc1cc(-c2n[nH]c(=O)o2)cc(F)c1OC(F)(F)F)C1CCNCC1.Cl` [Example 202, 5-[3-fluoro-5-{[(1S)-1-(piperidin-4-yl)ethyl]amino}-4-(trifluoromethoxy)phenyl]-1,3,4-oxadiazol-2(3H)-one hydrochloride], the GI50 came out at 0.026 µM in assay [1], 0.078 µM in assay [4] and 0.79 µM in assay [5]. Moreover, the inhibition in vivo at 10 mg/kg in assay [2] (single dose 10 mg/kg) worked out at 28.4%. Further, the inhibition in vivo at 20 mg/kg in assay [2] was found to be 33.5%.
